The results in this text go back to patent publication US20250115620A1, “BRIDGED TRICYCLIC CARBAMOYLPYRIDONE COMPOUNDS AND USES THEREOF” (Gilead Sciences, Inc., priority 2022, published 2025).

For one data set, the system named is MT-4 cells. Kind of data set: Cytotoxicity assay in MT-4 cells. The following applies: uninfected MT-4 cells.
A further data set can be described thus: in vitro. The following applies: human, uninfected MT-4 cells.
Another data set concerns pLAI reporter virus. Kind of data set: microbe, parasite or virus in culture. It is filed as cell-based, HIV.
For the next data set, the system named is HIV-1 (IIIB). The data set is described as follows: microbe, parasite or virus in culture. It is filed as cell-based. The following applies: HIV-1 (IIIB) in MT-4 cells, 5 days incubation, Cell Titer Glo, read-out: MT4 EC50.
A short description of data set [1]: Half life, PK in monkeys after intravenous infusion. It is filed as in vivo. The following applies: cynomolgus, monkey, single-dose intravenous infusion for 30 minutes, plasma, read-out: Cyno half-life (converted). On the procedure: Test compound PK was determined in monkeys (Labcorp, Madison, WI) following a single-dose intravenous infusion for 30 minutes. The dosing vehicle was a mixture of N-methylpyrrolidone, polyethylene glycol 300, and water for intravenous administration in monkeys. […] Nonclinical plasma samples were prepared by addition of 200 μl cold acetonitrile/internal standard solution to 96-well plates containing 50 μl aliquots of each plasma sample. After protein precipitation, each of the supernatants (50 μl) were transferred to clean 96-well plates and diluted with 450 μl of water. The sample injection volume was 2 μl. Samples were analyzed by a multiple reaction monitoring LC-MS/MS method. […] Thermo Fisher Scientific), and the ABSciex QTRAP5500 Mass Spectrometer LC-MS/MS system. […] The following plasma PK parameters were estimated in nonclinical species (as appropriate): observed peak plasma concentration (Cmax), time to reach Cmax (Tmax), last quantifiable plasma concentration (Clast), t1/2, time of Clast (Tlast), area under the plasma concentration-time curve (AUC) from time 0 [NT], AUC from time 0 to infinity (AUCinf), CL, mean residence time (MRT), and volume of distribution at steady state (Vss).

In another data set the test system is E92Q/N155H. Kind of data set: HIV double mutant assay in MT-4 cells. It is filed as cell-based. The following applies: E92Q/N155H vs wild type HXB2, MT-4 cells, 5 day incubation. How it is done: (§1) The HIV double mutant assay assesses the changes in efficacy of antiviral compounds against viral mutants compared to wild type. Each of the three mutant virus strains in this panel contain two amino acid substitutions ([…], E138K/Q148K and E92Q/N155H) of the parental HXB2. Test compounds and controls were serially diluted and spotted in replicates into 384 well black assay plates using acoustic transfer (Echo). Replicate sets of plates were made for each strain. MT-4 cells were grown in batch, centrifuged and resuspended in fresh CCM media (RPMI w/10% FBS, 1% PS) at 2×10^6 cells/ml. Cells were batch infected with each mutant strain at optimized volumes (currently HXB2 25 ul/ml; […], E138K/Q148K and E92Q/N155H at 40 ul/ml cells). The size of each infection mix was based on number of sample plates to be tested. Each infection mix was transferred into 5 ml closed tubes and nutated rapidly on a shaker at 37 deg. incubator for 1 hour. The infection mixes were then diluted 25× in fresh CCM media then added to assay plates at 40 ul per well using a Viaflo 384 pipettor. After 5 day incubation at 37 degrees in a CO2 incubator, assay plates were processed with Cell-titer glo reagent using a ViaFlo 384 with an addition/mixing program. Plates were read immediately on Envision reader. Assay signals were plotted and dose response curves generated to determine individual compound EC50s. The effect of each mutation was assessed by comparing EC50s of wild type and mutant strains.

For another data set, the system named is E138K/Q148K. Kind of data set: HIV double mutant assay in MT-4 cells. It is filed as cell-based. The following applies: E138K/Q148K vs wild type HXB2, MT-4 cells, 5 day incubation. How it is done: as §1
The next data set has as its system G140S/Q148R. Kind of data set: HIV double mutant assay in MT-4 cells. As to conditions: G140S/Q148R vs wild type HXB2, MT-4 cells, 5 day incubation. It is filed as cell-based. On the procedure: as §1
[2] abbreviates: Human immunodeficiency virus 1, MT4, 72 h, read-out: RLUC CCM EC50.
[3] abbreviates: Human immunodeficiency virus 1, IIIB, MT4, 120 h.
Where [4] appears, read: Human immunodeficiency virus 1, MT4, 72 h, read-out: RLUC 50% HS EC50.

Where two headings read alike, the source gives them in different places.

Procedure for in vitro: Compounds were serially diluted (1:3) in DMSO on 384-well polypropylene plates and further diluted 200-fold into complete RPMI media (10% FBS, 1% P/S) using the Biotek Micro Flow and Labcyte ECHO acoustic dispenser. […] Infected and uninfected MT-4 cells were further diluted in complete RPMI media and added to each plate using a Micro Flow dispenser. After 5 days incubation in a humidified and temperature controlled incubator (37° C.), Cell Titer Glo (Promega) was added to the assay plates and chemiluminescence read using an Envision plate-reader.
Assays were performed as above except uninfected MT-4 cells were added to each well containing test compound. In addition, 10 μM puromycin was added to the last column of each assay plate to assess a base level of cytotoxicity.

One may read the CC50 as the concentration at which the toxic effect on the cells reaches its halfway point. A lower CC50 goes with greater toxicity to the cells. Usually EC50 stands for the midpoint of the concentration-response curve. In the data set with MT-4 cells, `CC1=NN(c2ccccc2)C2(CC[C@H](C)N3C[C@H]2n2cc(C(=O)NCc4c(F)cc(F)cc4F)c(=O)c(O)c2C3=O)C1` (single isomer, unassigned) [Example 90, (3′S,7′R)-12′-hydroxy-3′,5-dimethyl-1′,11′-dioxo-2-phenyl-N-(2,4,6-trifluorobenzyl)-1′,2,4,4′,5′,11′-hexahydro-3′H,7′H-spiro[pyrazole-3,6′-[2,7]methanopyrido[1,2-a][1,4]diazonine]-10′-carboxamide] gave a CC50 of 20000 nM. Moreover, in the data set “in vitro”, it took 22300 nM to reach half-maximal cytotoxicity (CC50 at 5 days). Moreover, the EC50 in the data set on pLAI reporter virus (setting [2]) was found to be 1.3 nM; with pLAI reporter virus (read-out: RLUC CCM EC50) it was 1.2 nM; in the data set with HIV-1 (IIIB), 3.2 nM; with HIV-1 (IIIB) (setting [3]) it was 4.3 nM.

The term half-life denotes how long it takes for the measured level to halve. Turning to `CC1=NO[C@@]2(CC[C@H](C)N3C[C@H]2n2cc(C(=O)NCc4ccc(F)cc4F)c(=O)c(O)c2C3=O)C1` [Example 1, (3'S,5S,7′R)—N-(2,4-difluorobenzyl)-12′-hydroxy-3,3′-dimethyl-1′,11′-dioxo-1′,4′,5′,11′-tetrahydro-3′H,4H,7′H-spiro[isoxazole-5,6′-[2,7]methanopyrido[1,2-a][1,4]diazonine]-10′-carboxamide], the CC50 at 5 days in “in vitro” came to 20400 nM. The EC50 in the data set with pLAI reporter virus (setting [4]) came out at 92 nM; in the data set on pLAI reporter virus (setting [2]) it was 0.3 nM; in the data set with pLAI reporter virus (read-out: RLUC CCM EC50), 0.25 nM; in the data set on HIV-1 (IIIB) (setting [3]) it was 0.8 nM. Also, the half-life in data set [1] is 29 h. Also, the “Double Mutant Shift (fold over wild type)” value with E92Q/N155H is 1×; in the data set with E138K/Q148K, 3×; with G140S/Q148R it was 4×.

In the case of `COC1=NO[C@@]2(CC[C@H](C)N3C[C@H]2n2cc(C(=O)NCc4ccc(F)cc4F)c(=O)c(O)c2C3=O)C1` [Example 40, (3′S,5S,7′R)—N-(2,4-difluorobenzyl)-12′-hydroxy-3-methoxy-3′-methyl-1′,11′-dioxo-1′,4′,5′,11′-tetrahydro-3′H,4H,7′H-spiro[isoxazole-5,6′-[2,7]methanopyrido[1,2-a][1,4]diazonine]-10′-carboxamide], the midpoint of cytotoxicity in “in vitro”, the CC50 at 5 days, lay at 34100 nM. The EC50 with pLAI reporter virus (setting [4]) was 22.5 nM; in the data set with pLAI reporter virus (setting [2]), 0.2 nM; in the data set with HIV-1 (IIIB) (setting [3]), 0.8 nM. Besides, in data set [1], the half-life is 12 h. Moreover, the “Double Mutant Shift (fold over wild type)” value is 1× with E92Q/N155H, 4× in the data set with E138K/Q148K and 5× in the data set with G140S/Q148R.

On to `O=C(NCc1c(F)cc(F)cc1F)c1cn2c(c(O)c1=O)C(=O)N1CCCC[C@H]2C1` [Reference Compound A], for which the figures for the EC50 in the data set on pLAI reporter virus (setting [4]), in the data set on pLAI reporter virus (setting [2]) and in the data set with HIV-1 (IIIB) (setting [3]) were 2 nM, 0.35 nM and 1.1 nM, respectively. The half-life in data set [1] is 3 h. For the same compound, the “Double Mutant Shift (fold over wild type)” value with E92Q/N155H is given as 2×; in the data set on E138K/Q148K it was 13×; in the data set with G140S/Q148R, 10×.

For the compound `O=C(NCc1ccc(F)cc1F)c1cn2c(c(O)c1=O)C(=O)N1CCCC[C@H]2C1` [Reference Compound B], the EC50 in the data set with pLAI reporter virus (setting [4]) was 1.1 nM; in the data set with pLAI reporter virus (setting [2]) it was 0.28 nM; in the data set on HIV-1 (IIIB) (setting [3]), 1.5 nM. Further, the half-life in data set [1] is 5 h. For the same compound, the “Double Mutant Shift (fold over wild type)” value in the data set on E92Q/N155H is 3×; with E138K/Q148K it was 18×; with G140S/Q148R, 12×.

As for `C[C@H]1CCC[C@H]2CN1C(=O)c1c(O)c(=O)c(C(=O)NCc3ccc(F)cc3F)cn12` [Reference Compound D], the EC50 with pLAI reporter virus (setting [4]) was determined as 7.5 nM; with pLAI reporter virus (setting [2]), 0.22 nM; in the data set with HIV-1 (IIIB) (setting [3]), 1.3 nM. In data set [1], the half-life is 3 h. Further, the “Double Mutant Shift (fold over wild type)” value stood at 1× in the data set with E92Q/N155H, 6× in the data set with E138K/Q148K and 5× in the data set on G140S/Q148R.

“(3′S,5S,7′R)—N-((2,4-difluorophenyl)methyl-d2)-12′-hydroxy-3,3′-dimethyl-1′,11′-dioxo-1′,4′,5′,11′-tetrahydro-3′H,4H,7′H-spiro[isoxazole-5,6′-[2,7]methanopyrido[1,2-a][1,4]diazonine]-10′-carboxamide-N′-^15N [Example 151]” yielded a CC50 in the data set on MT-4 cells of 13800 nM. In addition, the EC50 with pLAI reporter virus (CCM media (RPMI/10% FBS), MT-4 cells, 3 days, read-out: RLUC CCM EC50) was found to be 0.3 nM; in the data set on pLAI reporter virus (read-out: RLUC 50% HS EC50, 50% human serum media, MT-4 cells, 3 days), 69.2 nM; with HIV-1 (IIIB) it was 1.8 nM.
